Patent US20260176320A1, “MODULATORS OF G-PROTEIN COUPLED RECEPTORS” (priority 2018, published 2026)
pEC50: −log10 of the molar value. Read-outs that look alike come from different tables or passages of the source.

Assays:
mice [1] = assay: Glucose tolerance test (GTT); format: in vivo, mouse; conditions: 24 h GTT, s.c., percent of vehicle
Method in brief: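 Compounds diluted in PBS from 1 mM DMSO stocks and given subcutaneously 15 min (5-6 h fast), 4 h (16 h overnight fast), 16 h or 24 h before intraperitoneal glucose (2 g/kg). Tail blood glucose read at 10–120 min post-glucose, at least 6 mice per time-point. Glucose AUC over time determined.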

mice [2] = assay: Conditioned taste aversion (CTA) in mice; format: in vivo, mouse; conditions: s.c., 30 nmol/kg, saccharine preference vs vehicle
Experimental: A value of CTA=0.0-0.6 indicates significant aversion to a compound. The conditioned taste aversion assay measures the preference for a dilute saccharin solution that is associated with compound administration.
One week before start of experiment (Day-7), animals were transferred to single house double grommet cages. A 50 ml water bottle was placed, and consistently replaced when refilled in the same grommet to habituate the animal to a “water” side. After 7 days of baseline water consumption, animals began the taste preference procedure. On Day 1, the animals were weighed and deprived of water at […]. On acquisition day (Day 2), mice had access to a single bottle containing 0.15% saccharin solution, on the opposite side to the “water” habituated side and allowed to consume for 3 h, from 6 pm until 9 pm. The saccharine bottles were then removed and weighed to record the 3 h consumption. […] On Day 3, the water was removed and weighed at 6 pm. On Day 4, both saccharine and water bottles were weighed and returned simultaneously to respective grommet at 6 pm. On Day 5, the bottles were removed at 6 pm and weighed. Saccharine consumption was measured as a percent of the total amount of fluid consumed. The reduction of saccharin consumption during the retrieval was used as a measure of CTA strength. Liraglutide and semaglutide were used as positive controls.

GLP-1R [3] = target: T1, GLP-1R (Homo sapiens, UniProt P43220); assay: HitHunter cAMP assay (GLP-1R); format: cell-based; conditions: for EC50: EC50 GLP-1R/nM; for Emax: read-out: (Emax) GLP-1R
T1 sequence (P43220 24-463): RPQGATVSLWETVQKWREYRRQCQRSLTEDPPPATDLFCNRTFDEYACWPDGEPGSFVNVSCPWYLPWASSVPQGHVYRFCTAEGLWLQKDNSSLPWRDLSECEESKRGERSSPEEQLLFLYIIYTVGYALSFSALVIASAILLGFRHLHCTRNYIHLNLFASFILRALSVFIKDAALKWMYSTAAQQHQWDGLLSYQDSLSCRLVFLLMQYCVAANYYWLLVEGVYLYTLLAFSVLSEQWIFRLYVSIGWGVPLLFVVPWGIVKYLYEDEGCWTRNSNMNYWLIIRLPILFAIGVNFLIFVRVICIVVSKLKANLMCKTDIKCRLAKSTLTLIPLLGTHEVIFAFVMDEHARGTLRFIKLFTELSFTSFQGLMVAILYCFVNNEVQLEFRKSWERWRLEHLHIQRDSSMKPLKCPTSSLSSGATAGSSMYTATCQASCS
Method in brief: (§1)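 Luminescent readout of cAMP by enzyme-fragment immunocompetition gave agonist concentration-response data. Cells (10,000/well) sat in HBSS buffer containing IBMX 625 μM, HEPES 10 mM and BSA 0.2%, exposed to agonist for 30 min at room temperature.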

GLP-1R [4] = target: T1, GLP-1R; assay: PathHunter β-arrestin assay; format: cell-based
Method in brief: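 Overnight-plated cells; 0.2% BSA medium; agonist 22-pt 2× dilution series, duplicate; 90 min, 37 °C/5% CO2; detection reagent 3 h RT, dark; luminescence.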

GIP-R = target: T2, GIP-R (Homo sapiens, UniProt P48546); assay: HitHunter cAMP assay (GIP-R); format: cell-based; conditions: for EC50: EC50 GIP-R/nM; for Emax: read-out: (Emax) GIP-R
T2 sequence (P48546 22-466): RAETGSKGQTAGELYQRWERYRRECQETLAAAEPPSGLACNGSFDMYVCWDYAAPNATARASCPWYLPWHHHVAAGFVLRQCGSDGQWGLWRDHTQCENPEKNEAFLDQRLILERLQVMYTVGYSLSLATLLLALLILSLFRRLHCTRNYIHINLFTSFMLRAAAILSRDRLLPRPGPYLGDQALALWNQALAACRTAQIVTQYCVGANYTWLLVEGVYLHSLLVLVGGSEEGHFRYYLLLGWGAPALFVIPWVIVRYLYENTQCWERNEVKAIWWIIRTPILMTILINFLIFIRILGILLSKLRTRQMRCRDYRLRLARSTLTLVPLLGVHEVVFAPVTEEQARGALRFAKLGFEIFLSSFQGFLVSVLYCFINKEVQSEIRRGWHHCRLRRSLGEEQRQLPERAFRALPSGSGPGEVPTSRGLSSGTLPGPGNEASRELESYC
Method in brief: as §1

mice [5] = conditions: general statement; cited from earlier work
GLP-1R [6] = target: T1, GLP-1R; conditions: general statement; cited from earlier work

Row | Compound | AUC score (mice [1]; dose range 5.1-15 nmol/kg) | CTA score (mice [2]) | EC50 (GLP-1R [3]; Table 3, cAMP) | EC50 (GLP-1R [3]; Table 3A, cAMP) | Emax (GLP-1R [3]; Table 3, cAMP) | Emax (GLP-1R [3]; Table 3A, cAMP) | pEC50 (GLP-1R [4]) | EC50 (GIP-R; Table 3, cAMP) | EC50 (GIP-R; Table 3A, cAMP) | Emax (GIP-R; Table 3, cAMP) | Emax (GIP-R; Table 3A, cAMP) | signal in conditioned taste aversion models (mice [5]) | AUC score (mice [1]; dose range 2-5 nmol/kg) | pEC50 (GLP-1R [3]) | Emax (GLP-1R [3]) | Emax (GIP-R) | β-arrestin recruitment (GLP-1R [6])
1 | CCCCCCCCCCCCCCCC(=O)N[C@@H](CCC(=O)NCCCC[C@H](NC(=O)[C@H](CO)NC(=O)[C@@H]1CCCN1C(=O)[C@@H]1CCCN1C(=O)[C@@H]1CCCN1C(=O)[C@H](C)NC(=O)CNC(=O)[C@H](CO)NC(=O)[C@H](CO)NC(=O)[C@@H]1CCCN1C(=O)CNC(=O)CNC(=O)[C@H](C)NC(=O)[C@H](CC(C)C)NC(=O)[C@H](CC(C)C)NC(=O)[C@H](Cc1c[nH]c2ccccc12)NC(=O)[C@H](CC(N)=O)NC(=O)[C@@H](NC(=O)[C@H](Cc1ccccc1)NC(=O)[C@H](CCC(=O)O)NC(=O)C(C)(C)NC(=O)[C@H](C)NC(=O)[C@H](C)NC(=O)[C@H](CCC(N)=O)NC(=O)[C@H](CCCCN)NC(=O)[C@H](CC(=O)O)NC(=O)[C@H](CC(C)C)NC(=O)[C@H](Cc1ccc(O)cc1)NC(=O)[C@@H](NC(=O)[C@H](CO)NC(=O)[C@H](Cc1ccc(O)cc1)NC(=O)[C@H](CC(=O)O)NC(=O)[C@H](CO)NC(=O)[C@@H](NC(=O)[C@H](Cc1ccccc1)NC(=O)[C@@H](NC(=O)CNC(=O)[C@H](CCC(=O)O)NC(=O)CSCC(=O)NCCN1C(=O)[C@@H](C)[C@@H](C)C1=O)[C@@H](C)O)[C@@H](C)O)[C@@H](C)CC)C(C)C)C(N)=O)C(=O)O [Compound 96] | 4 (AUC score 4 = 76-100%) | 4 (Score 4 = 76-100%) | 1 to 10 nM | 1 to 10 nM | 94% | 94% | < 6.00 | 0.1 to 1 nM | 0.1 to 1 nM | 90% | 90% | – | – | – | – | – | –
2 | CCCCCCCCCCCCCCCC(=O)N[C@@H](CCC(=O)NCCCC[C@H](NC(=O)[C@H](C)NC(=O)[C@H](C)NC(=O)[C@H](CCC(N)=O)NC(=O)CNC(=O)[C@H](CCC(=O)O)NC(=O)[C@H](CC(C)C)NC(=O)[C@H](Cc1ccc(O)cc1)NC(=O)[C@H](CO)NC(=O)[C@H](CO)NC(=O)[C@@H](NC(=O)[C@H](CC(=O)O)NC(=O)[C@H](CO)NC(=O)[C@@H](NC(=O)[C@H](Cc1ccccc1)NC(=O)[C@@H](NC(=O)CNC(=O)[C@H](CCC(=O)O)NC(=O)[C@H](C)NC(=O)[C@@H](N)Cc1cnc[nH]1)[C@@H](C)O)[C@@H](C)O)C(C)C)C(=O)N[C@@H](CCC(=O)O)C(=O)N[C@@H](Cc1ccccc1)C(=O)N[C@H](C(=O)N[C@@H](C)C(=O)N[C@@H](Cc1c[nH]c2ccccc12)C(=O)N[C@@H](CC(C)C)C(=O)N[C@H](C(=O)N[C@@H](CCCNC(=N)N)C(=O)NCC(=O)N[C@@H](CCCNC(=N)N)C(=O)NCC(=O)O)C(C)C)[C@@H](C)CC)C(=O)O [Liraglutide, liraglutide] | – | – | – | – | – | – | – | – | – | – | – | strong signal in conditioned taste aversion models | – | – | – | – | –
3 | CCCCCCCCCCCCCCCC(=O)N[C@@H](CCC(=O)NCCCC[C@H](NC(=O)[C@H](CO)NC(=O)[C@@H]1CCCN1C(=O)[C@@H]1CCCN1C(=O)[C@@H]1CCCN1C(=O)[C@H](C)NC(=O)CNC(=O)[C@H](CO)NC(=O)[C@H](CO)NC(=O)[C@@H]1CCCN1C(=O)CNC(=O)CNC(=O)[C@H](C)NC(=O)[C@H](CC(C)C)NC(=O)[C@H](CC(C)C)NC(=O)[C@H](Cc1c[nH]c2ccccc12)NC(=O)[C@H](CC(N)=O)NC(=O)[C@@H](NC(=O)[C@H](Cc1ccccc1)NC(=O)[C@H](CCC(=O)O)NC(=O)C(C)(C)NC(=O)[C@H](C)NC(=O)[C@H](C)NC(=O)[C@H](CCC(N)=O)NC(=O)[C@H](CCCCN)NC(=O)[C@H](CC(=O)O)NC(=O)[C@H](CC(C)C)NC(=O)[C@H](Cc1ccc(O)cc1)NC(=O)[C@@H](NC(=O)[C@H](CO)NC(=O)[C@H](Cc1ccc(O)cc1)NC(=O)[C@H](CC(=O)O)NC(=O)[C@H](CO)NC(=O)[C@@H](NC(=O)[C@H](Cc1ccccc1)NC(=O)[C@@H](NC(=O)CNC(=O)[C@H](CCC(=O)O)NC(=O)CSCC(=O)NCCN1C(=O)C[C@H](C)C1=O)[C@@H](C)O)[C@@H](C)O)[C@@H](C)CC)C(C)C)C(N)=O)C(=O)O [Compound 91] | – | 4 (Score 4 = 76-100%) | 1 to 10 nM | 1 to 10 nM | 98% | 98% | < 6.00 | 1 to 10 nM | 1 to 10 nM | 85% | 85% | – | 3 (AUC score 3 = 51-75%) | – | – | – | –
4 | CCCCCCCCCCCCCCCC(=O)N[C@@H](CCC(=O)NCCCC[C@H](NC(=O)[C@H](CO)NC(=O)[C@@H]1CCCN1C(=O)[C@@H]1CCCN1C(=O)[C@@H]1CCCN1C(=O)[C@H](C)NC(=O)CNC(=O)[C@H](CO)NC(=O)[C@H](CO)NC(=O)[C@@H]1CCCN1C(=O)CNC(=O)CNC(=O)[C@H](C)NC(=O)[C@H](CC(C)C)NC(=O)[C@H](CC(C)C)NC(=O)[C@H](Cc1c[nH]c2ccccc12)NC(=O)[C@H](CC(N)=O)NC(=O)[C@@H](NC(=O)[C@H](Cc1ccccc1)NC(=O)[C@H](CCC(=O)O)NC(=O)C(C)(C)NC(=O)[C@H](C)NC(=O)[C@H](C)NC(=O)[C@H](CCC(N)=O)NC(=O)[C@H](CCCCN)NC(=O)[C@H](CC(=O)O)NC(=O)[C@H](CC(C)C)NC(=O)[C@H](Cc1ccc(O)cc1)NC(=O)[C@@H](NC(=O)[C@H](CO)NC(=O)[C@H](Cc1ccc(O)cc1)NC(=O)[C@H](CC(=O)O)NC(=O)[C@H](CO)NC(=O)[C@@H](NC(=O)[C@H](Cc1ccccc1)NC(=O)[C@@H](NC(=O)CNC(=O)[C@H](CCC(=O)O)NC(=O)CCNC(=O)CN1CCCC1=O)[C@@H](C)O)[C@@H](C)O)[C@@H](C)CC)C(C)C)C(N)=O)C(=O)O [Compound 264] | – | 1 (Score 1 = 0-25%) | – | – | – | – | > 8.00 | – | 1 to 10 nM | – | – | – | 3 (AUC score 3 = 51-75%) | > 10.00 | 100% | 90% | –
5 | glucagon-like peptide-1 [GLP-1] | – | – | – | – | – | – | – | – | – | – | – | – | – | – | – | – | potent recruiters of β-arrestin
6 | CCCCCCCCCCCCCCCC(=O)N[C@@H](CCC(=O)NCCCC[C@H](NC(=O)[C@H](CO)NC(=O)[C@@H]1CCCN1C(=O)[C@@H]1CCCN1C(=O)[C@@H]1CCCN1C(=O)[C@H](C)NC(=O)CNC(=O)[C@H](CO)NC(=O)[C@H](CO)NC(=O)[C@@H]1CCCN1C(=O)CNC(=O)CNC(=O)[C@H](C)NC(=O)[C@H](CC(C)C)NC(=O)[C@H](CC(C)C)NC(=O)[C@H](Cc1c[nH]c2ccccc12)NC(=O)[C@H](CC(N)=O)NC(=O)[C@@H](NC(=O)[C@H](Cc1ccccc1)NC(=O)[C@H](CCC(=O)O)NC(=O)C(C)(C)NC(=O)[C@H](C)NC(=O)[C@H](C)NC(=O)[C@H](CCC(N)=O)NC(=O)[C@H](CCCCN)NC(=O)[C@H](CC(=O)O)NC(=O)[C@H](CC(C)C)NC(=O)[C@H](Cc1ccc(O)cc1)NC(=O)[C@@H](NC(=O)[C@H](CO)NC(=O)[C@H](Cc1ccc(O)cc1)NC(=O)[C@H](CC(=O)O)NC(=O)[C@H](CO)NC(=O)[C@@H](NC(=O)[C@H](Cc1ccccc1)NC(=O)[C@@H](NC(=O)CNC(=O)[C@H](CCC(=O)O)NC(=O)CSCC(=O)NCCN1CCC(O)CC1=O)[C@@H](C)O)[C@@H](C)O)[C@@H](C)CC)C(C)C)C(N)=O)C(=O)O (single isomer, unassigned) [Compound 202] | – | 4 (Score 4 = 76-100%) | – | < 0.1 nM | – | – | < 6.00 | – | 0.1 to 1 nM | – | 67% | – | – | – | – | – | –
